Laboratory results taken from US20240293559A1, “SHP2 inhibitor, pharmaceutical composition containing the same and application thereof” (BEIJING TIDE PHARMACEUTICAL CO., LTD., priority 2021, published 2024).

Biological target: T1, SHP2 (Homo sapiens, UniProt Q06124)
T1 construct: endogenous in cells; host or cells: MV 411
T1 sequence (Q06124 1-593): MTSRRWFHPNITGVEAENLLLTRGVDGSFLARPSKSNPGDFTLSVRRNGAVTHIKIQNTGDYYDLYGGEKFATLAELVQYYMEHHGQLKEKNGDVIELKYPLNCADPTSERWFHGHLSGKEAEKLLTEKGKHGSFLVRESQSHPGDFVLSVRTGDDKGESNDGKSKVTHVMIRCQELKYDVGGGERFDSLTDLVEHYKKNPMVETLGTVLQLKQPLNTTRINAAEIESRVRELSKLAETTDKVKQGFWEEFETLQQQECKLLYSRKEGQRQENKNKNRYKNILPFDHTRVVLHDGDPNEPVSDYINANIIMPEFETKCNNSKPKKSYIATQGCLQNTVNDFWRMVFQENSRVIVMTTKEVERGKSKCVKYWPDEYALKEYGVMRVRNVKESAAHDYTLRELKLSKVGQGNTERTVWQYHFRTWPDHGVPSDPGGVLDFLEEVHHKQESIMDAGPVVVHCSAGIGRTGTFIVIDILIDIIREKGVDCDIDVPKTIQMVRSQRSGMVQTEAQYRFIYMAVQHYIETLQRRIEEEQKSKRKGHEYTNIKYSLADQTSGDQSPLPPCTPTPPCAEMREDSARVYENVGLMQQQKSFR
Assay: SHP2 degradation in MV 411 cells by Western blot (median degradation concentration)
Type: cell-based
Details: 24 hours with compound, SHP-2 antibody Western blot, concentration of the median degradation from exposure gray scale
Excerpt: Reagent: complete DMEM medium, Gibco products. Fetal bovine serum, manufactured byThermoFisher. Trypsin, manufactured byThermoFisher. The SHP-2 antibody is produced by CST. Cell line, MV 411, the blast cells of patients with bi-phenotypic B-myelomonocytic leukemia, was established by Rovera. Measuring method: took the cells growing in the logarithmic phase, collected and suspended the cells in DMEM containing 10% fetal calf serum, gently blowed and beated the cells into single cell suspension by using a pipette, and counted the living cells under a microscope. […] Then cultured for 24 hours. All cells were collected and washed with PBS, lysed with RIPA lysate and collected into a 1.7 ml tube. […] metal bath for 5 minutes to fully denature the protein. 100V constant voltage electrophoresis after Western condensation and loading, stopped when bromophenol blue band reached the end point. The cellulose acetate membrane is transferred by a wet method, 45 minutes at a constant flow of 300-500 mA, 5% BSA is used for blocking for 1-2 hours at room temperature. Primary antibody of 1:500-1:8000 were used for incubation at 25° C. for 40 minutes and then washed three times. Secondary antibody was used for incubation for 15-40 min at room temperature. The proteins were detected using ultrasensitive ECL luminophores such as […], using an X-Ray film automatic developing machine. The concentration of the median degradation was calculated by exposure gray scale.

Structure (SMILES)	DC50
CCOc1cc2oc(-c3ccc(OCCOCCOCCOCCOc4cccc5c4C(=O)N(C4CCC(=O)NC4=O)C5=O)cc3Cl)cc(=O)c2cc1-c1cc(NS(C)(=O)=O)cc(C(N)=O)c1 (stereo not drawn) [Compound 66]	> 250 nM
CCOc1cc2oc(-c3ccc(OCCOCCOCCOCCOc4cccc5c4C(=O)N(C4CCC(=O)NC4=O)C5=O)cc3Cl)cc(=O)c2cc1-c1cc(C(N)=O)cc(N(C)S(C)(=O)=O)c1 (stereo not drawn) [Compound 67]	> 250 nM
CCOc1cc2oc(-c3ccc(OCCOCCOCCOCCOc4cccc5c4C(=O)N(C4CCC(=O)NC4=O)C5=O)cc3Cl)cc(=O)c2cc1-c1cc(NS(=O)(=O)c2ccccc2)cc(C(N)=O)c1 (stereo not drawn) [Compound 68]	> 250 nM
CCOc1cc2oc(-c3ccc(OCCOCCOCCOCCOc4cccc5c4C(=O)N(C4CCC(=O)NC4=O)C5=O)cc3Cl)cc(=O)c2cc1-c1cc(C(N)=O)cc(N(C)S(=O)(=O)c2ccccc2)c1 (stereo not drawn) [Compound 69]	> 250 nM
CCOc1cc2oc(-c3ccc(OCCOCCOCCOCCOc4cccc5c4C(=O)N(C4CCC(=O)NC4=O)C5=O)cc3Cl)cc(=O)c2cc1-c1cc(NC(=O)NC)cc(C(N)=O)c1 (stereo not drawn) [Compound 70]	> 250 nM
CCOc1cc2oc(-c3ccc(OCCOCCOCCOCCOc4cccc5c4C(=O)N(C4CCC(=O)NC4=O)C5=O)cc3Cl)cc(=O)c2cc1-c1cc(NC(=O)Nc2ccccc2)cc(C(N)=O)c1 (stereo not drawn) [Compound 71]	> 250 nM
CCOc1cc2oc(-c3ccc(OCCOCCOCCOCCOc4cccc5c4C(=O)N(C4CCC(=O)NC4=O)C5=O)cc3Cl)cc(=O)c2cc1CCC(=O)Nc1ccccc1 (stereo not drawn) [Compound 72]	> 250 nM
CCOc1cc2oc(-c3ccc(OCCOCCOCCOCCOc4cccc5c4C(=O)N(C4CCC(=O)NC4=O)C5=O)cc3Cl)cc(=O)c2cc1-c1cc(O)cc(C(N)=O)c1 (stereo not drawn) [Compound 73]	> 250 nM
CCOc1cc2oc(-c3ccc(OCCOCCOCCOCCOc4cccc5c4C(=O)N(C4CCC(=O)NC4=O)C5=O)cc3Cl)cc(=O)c2cc1-c1cc(C(N)=O)cc(C(N)=O)c1 (stereo not drawn) [Compound 74]	2 nM
CCOc1cc2oc(-c3ccc(OCCOCCOCCOCCOc4cccc5c4C(=O)N(C4CCC(=O)NC4=O)C5=O)cc3Cl)cc(=O)c2cc1-c1cc(C(N)=O)cc(C(=O)NC)c1 (stereo not drawn) [Compound 76]	> 250 nM
CCOc1cc2oc(-c3ccc(OCCOCCOCCOCCOc4cccc5c4C(=O)N(C4CCC(=O)NC4=O)C5=O)cc3Cl)cc(=O)c2cc1-c1cc(C(N)=O)cc(C(=O)N(C)C)c1 (stereo not drawn) [Compound 77]	> 250 nM
CCOc1cc2oc(-c3ccc(OCCOCCOCCOCCOc4cccc5c4C(=O)N(C4CCC(=O)NC4=O)C5=O)cc3Cl)cc(=O)c2cc1-c1cc(C(N)=O)cc(C(=O)Nc2ccccc2)c1 (stereo not drawn) [Compound 78]	> 250 nM
CCOc1cc2oc(-c3ccc(OCCOCCOCCOCCOc4cccc5c4C(=O)N(C4CCC(=O)NC4=O)C5=O)cc3Cl)cc(=O)c2cc1-c1cc(C(N)=O)cc(S(N)(=O)=O)c1 (stereo not drawn) [Compound 80]	> 500 nM
CCOc1cc2oc(-c3ccc(OCCOCCOCCOCCOc4cccc5c4C(=O)N(C4CCC(=O)NC4=O)C5=O)cc3Cl)cc(=O)c2cc1-c1cc(C(N)=O)cc(S(=O)(=O)NC)c1 (stereo not drawn) [Compound 81]	> 500 nM

Now from value to compound:

DC50	Structure (SMILES)
> 250 nM	CCOc1cc2oc(-c3ccc(OCCOCCOCCOCCOc4cccc5c4C(=O)N(C4CCC(=O)NC4=O)C5=O)cc3Cl)cc(=O)c2cc1-c1cc(C(N)=O)cc(N(C)C(C)=O)c1 (stereo not drawn) [Compound 65]
24.6 nM	CCOc1cc2oc(-c3ccc(OCCOCCOCCOCCOc4cccc5c4C(=O)N(C4CCC(=O)NC4=O)C5=O)cc3Cl)cc(=O)c2cc1-c1cc(C(C)=O)cc(C(N)=O)c1 (stereo not drawn) [Compound 75]
500 nM	CCOc1cc2oc(-c3ccc(OCCOCCOCCOCCOc4cccc5c4C(=O)N(C4CCC(=O)NC4=O)C5=O)cc3Cl)cc(=O)c2cc1-c1cc(C(N)=O)cc(S(C)(=O)=O)c1 (stereo not drawn) [Compound 79]
50 nM	CCOc1cc2oc(-c3ccc(NCCOCCOCCOCCOc4ccc5c(c4)C(=O)N(C4CCC(=O)NC4=O)C5=O)cc3Cl)cc(=O)c2cc1-c1cccc(C(C)=O)c1 (stereo not drawn) [Compound 86]
45 nM	CCOc1cc2oc(-c3ccc(OCCOCCOCCOCCOc4ccc5c(c4)C(=O)N(C4CCC(=O)NC4=O)C5=O)cc3Cl)cc(=O)c2cc1-c1cncc(C(C)=O)c1 (stereo not drawn) [Compound 87]
55 nM	CCOc1cc2oc(-c3ccc(OCc4cn(CC(=O)N5CCC(OC6CC(Oc7cccc8c7C(=O)N(C7CCC(=O)NC7=O)C8=O)C6)CC5)nn4)cc3Cl)cc(=O)c2cc1-c1cccc(C(C)=O)c1 (stereo not drawn) [Compound 88]
75 nM	CCOc1cc2oc(-c3ccc(NCCOCCOCCOCCOc4cccc5c4C(=O)N(C4CCC(=O)N(COC(=O)CC6CCCCC6)C4=O)C5=O)cc3Cl)cc(=O)c2cc1-c1cccc(C(C)=O)c1 (stereo not drawn) [Compound 89]
